Results from patent US9725449B2, “Tricyclic compounds as anticancer agents” (BRISTOL-MYERS SQUIBB COMPANY, priority 2015, dated 2017).

target: BRD4 (Homo sapiens, UniProt O60885); test: Time resolved fluorescence resonance energy transfer (TR-FRET) binding assay, bromodomain BRD4; settings: one of the FRET assays described; read-out: FRET BRD4 IC50

Compound	IC50 [nM]
Cc1nnn(C)c1-c1cnc2c3cncc(S(C)(=O)=O)c3n(C(c3ccccc3)C3CCC(F)(F)CC3)c2c1 (stereo not shown) [Example 290, 8-[(4,4-Difluorocyclohexyl)(phenyl)methyl]-5-(dimethyl-1H-1,2,3-triazol-5-yl)-10-methanesulfonyl-3,8,12-triazatricyclo[7.4.0.0^2,^7]trideca-1(13),2(7),3,5,9,11-hexaene]	< 1
[2H]C([2H])([2H])c1nnn(C)c1-c1cnc2c3c(NCC(F)(F)F)cncc3n(C(c3ncccc3F)C3CCOCC3)c2c1 (stereo not shown) [Example 304, 8-[(3-Fluoropyridin-2-yl)(oxan-4-yl)methyl]-5-[4-(^2H3)methyl-1-methyl-1H-1,2,3-triazol-5-yl]-N-(2,2,2-trifluoroethyl)-3,8,11-triazatricyclo[7.4.0.0^2,^7]trideca-1(9),2(7),3,5,10,12-hexaen-13-amine]	< 10
Cc1nnn(C)c1-c1cnc2c3cnc(Cl)cc3n([C@H](c3ccc(Cl)cn3)C3CCOCC3)c2c1 [Example 323]	< 10
COc1ncc(Cl)c2c1c1ncc(-c3c(C)nnn3C)cc1n2[C@H](c1ccccc1)C1CCOCC1 [Example 39, 10-Chloro-5-(dimethyl-1H-1,2,3-triazol-5-yl)-13-methoxy-8-[(S)-oxan-4-yl(phenyl)methyl]-3,8,11-triazatricyclo[7.4.0.0^2,^7]trideca-1(13),2(7),3,5,9,11-hexaene]	< 10
[2H]C([2H])([2H])c1nnn(C)c1-c1cnc2c3c(OC)cncc3n([C@H](c3ccccc3)C3CCOCC3)c2c1 [Example 300, 13-Methoxy-5-[4-(^2H3)methyl-1-methyl-1H-1,2,3-triazol-5-yl]-8-[(S)-oxan-4-yl(phenyl)methyl]-3,8,11-triazatricyclo[7.4.0.0^2,^7]trideca-1(9),2(7),3,5,10,12-hexaene]	< 1
Cc1noc(C)c1-c1cnc2c3cnc(C(C)(C)O)cc3n([C@H](c3ccc(F)cc3)C3CCOCC3)c2c1 [Example 331, 2-[5-(Dimethyl-1,2-oxazol-4-yl)-8-[(S)-(4-fluorophenyl)(oxan-4-yl)methyl]-3,8,12-triazatricyclo[7.4.0.0^2,^7]trideca-1(9),2(7),3,5,10,12-hexaen-11-yl]propan-2-ol]	< 10
CCOc1ncc(Cl)c2c1c1ncc(-c3c(C)nnn3C)cc1n2[C@H](c1ccccc1)C1CCOCC1 [Example 43, 10-Chloro-5-(dimethyl-1H-1,2,3-triazol-5-yl)-13-ethoxy-8-[(S)-oxan-4-yl(phenyl)methyl]-3,8,12-triazatricyclo[7.4.0.0^2,^7]trideca-1(13),2(7),3,5,9,11-hexaene]	< 1
COC(=O)c1cnc(OC)c2c3ncc(-c4c(C)nnn4C)cc3n([C@H](c3ccccc3)C3CCOCC3)c12 [Example 135, Methyl 5-(dimethyl-1H-1,2,3-triazol-5-yl)-13-methoxy-8-[(S)-oxan-4-yl(phenyl)methyl]-3,8,12-triazatricyclo[7.4.0.0^2,^7]trideca-1(9),2,4,6,10,12-hexaene-10-carboxylate]	< 1
Cc1nnn(C)c1-c1cnc2c3cnc(C(C)(C)O)cc3n([C@H](c3ccc(F)cc3)C3CCOCC3)c2c1 [Example 336]	< 10
Cc1nnn(C)c1-c1cnc2c3ccc(N4CC5CC4CS5(=O)=O)nc3n([C@H](c3ccccc3)C3CCOCC3)c2c1 (stereo partly drawn) [Example 214, 5-[5-(Dimethyl-1H-1,2,3-triazol-5-yl)-8-[(S)-oxan-4-yl(phenyl)methyl]-3,8,10-triazatricyclo[7.4.0.0^2,^7]trideca-1(9),2(7),3,5,10,12-hexaen-11-yl]-2λ^6-thia-5-azabicyclo[2.2.1]heptane-2,2-dione]	< 1
Cc1nnn(C)c1-c1cnc2c3ccc(N4CCS(=O)(=O)C(C)C4)nc3n([C@H](c3ccccc3)C3CCOCC3)c2c1 (single isomer, unassigned; diastereomer b) [Example 218]	< 1
[2H]C([2H])([2H])c1nnn(C)c1-c1cnc2c3cnc(S(C)(=O)=O)cc3n([C@H](c3ccccc3)C3CCOCC3)c2c1 [Example 201, 11-Methanesulfonyl-5-[4-(^2H3)methyl-1-methyl-1H-1,2,3-triazol-5-yl]-8-[(S)-oxan-4-yl(phenyl)methyl]-3,8,12-triazatricyclo[7.4.0.0^2,^7]trideca-1(9),2(7),3,5,10,12-hexaene]	< 10
2-{11-Chloro-5-[4-(^2H3)methyl-1-methyl-1H-1,2,3-triazol-5-yl]-8-[(S)-oxan-4-yl(phenyl)methyl]-3,8,12-triazatricyclo[7.4.0.0^2,^7]trideca-1(13),2(7),3,5,9,11-hexaen-13-yl}propan-2-ol [Example 293]	< 10
[2H]C([2H])([2H])c1nnn(C)c1-c1cnc2c3c(OC)ncc(S(C)(=O)=O)c3n(C(c3c(F)cc(F)cc3F)C3CCOCC3)c2c1 (single isomer, unassigned) [Example 83, 10-Methanesulfonyl-13-methoxy-5-[4-(^2H3)methyl-1-methyl-1H-1,2,3-triazol-5-yl]-8-[oxan-4-yl(2,4,6-trifluorophenyl)methyl]-3,8,12-triazatricyclo[7.4.0.0^2,^7]trideca-1(13),2(7),3,5,9,11-hexaene]	< 1
Cc1nnn(C)c1-c1cnc2c3cnc(Cl)cc3n(C(c3ncccc3F)C3CCOCC3)c2c1 (single isomer, unassigned) [Example 317]	< 1500
[2H]C([2H])([2H])c1nnn(C)c1-c1cnc2c3cnc(C(C)(C)O)cc3n([C@H](c3ccccc3)C3CCOCC3)c2c1 [Example 284, 2-{5-[4-(^2H3)Methyl-1-methyl-1H-1,2,3-triazol-5-yl]-8-[(S)-oxan-4-yl(phenyl)methyl]-3,8,12-triazatricyclo[7.4.0.0^2,^7]trideca-1(9),2(7),3,5,10,12-hexaen-11-yl}propan-2-ol]	< 1
Cc1noc(C)c1-c1cc2c(cn1)c1ncc(C(C)(C)O)cc1n2[C@H](c1ccccc1)C1CCOCC1 [Example 369]	< 10
[2H]C([2H])([2H])c1nnn(C)c1-c1cnc2c3ccc(C(C)(O)C4CC4)nc3n([C@H](c3ccccc3F)C3CCOCC3)c2c1 (stereo partly drawn) [Example 243, 1-Cyclopropyl-1-{8-[(S)-(2-fluorophenyl)(oxan-4-yl)methyl]-5-[4-(^2H3)methyl-1-methyl-1H-1,2,3-triazol-5-yl]-3,8,10-triazatricyclo[7.4.0.0^2,^7]trideca-1(13),2(7),3,5,9,11-hexaen-11-yl}ethan-1-ol]	< 10
Cc1nnn(C)c1-c1cnc2c3ccnc(NCCO)c3n([C@H](c3ccccc3)C3CCOCC3)c2c1 [Example 11, 2-{[5-(Dimethyl-1H-1,2,3-triazol-5-yl)-8-[(S)-oxan-4-yl(phenyl)methyl]-3,8,11-triazatricyclo[7.4.0.0^2,^7]trideca-1(13),2(7),3,5,9,11-hexaen-10-yl]amino}ethan-1-ol]	< 10
Cc1noc(C)c1-c1cnc2c3cnc(Cl)cc3n([C@H](c3ccc(F)cc3)C3CCOCC3)c2c1 [Example 326]	< 10
[2H]C([2H])([2H])c1nnn(C)c1-c1cnc2c3c(OC)nc(S(C)(=O)=O)cc3n([C@H](c3ccccc3)C3CCOCC3)c2c1 [Example 342, 11-Methanesulfonyl-13-methoxy-5-[4-(^2H3)methyl-1-methyl-1H-1,2,3-triazol-5-yl]-8-[(S)-oxan-4-yl(phenyl)methyl]-3,8,12-triazatricyclo[7.4.0.0^2,^7]trideca-1(13),2(7),3,5,9,11-hexaene]	< 10
Cc1nnn(C)c1-c1cnc2c3ccc(N4CCC(C#N)CC4)nc3n([C@H](c3ccccc3F)C3CCOCC3)c2c1 [Example 274, 1-[5-(Dimethyl-1H-1,2,3-triazol-5-yl)-8-[(S)-(2-fluorophenyl)(oxan-4-yl)methyl]-3,8,10-triazatricyclo[7.4.0.0^2,^7]trideca-1(13),2(7),3,5,9,11-hexaen-11-yl]piperidine-4-carbonitrile]	< 10
Cc1nnn(C)c1-c1cnc2c3cnc(Cl)cc3n(C(c3ncccc3F)C3CCOCC3)c2c1 (single isomer, unassigned) [Example 318]	< 10
COc1ncc(S(C)(=O)=O)c2c1c1ncc(-c3c(C)nnn3C)cc1n2[C@H](c1ccccc1F)C1CCOCC1 [Example 50, 5-(Dimethyl-1H-1,2,3-triazol-5-yl)-8-[(S)-(2-fluorophenyl)(oxan-4-yl)methyl]-10-methanesulfonyl-13-methoxy-3,8,12-triazatricyclo[7.4.0.0^2,^7]trideca-1(13),2(7),3,5,9,11-hexaene]	< 1
COc1ncc(S(C)(=O)=O)c2c1c1ncc(-c3c(C)nnn3C)cc1n2C(c1ccccc1)C1CCC(F)(F)CC1 (single isomer, unassigned) [Example 90, 8-[(4,4-Difluorocyclohexyl)(phenyl)methyl]-5-(dimethyl-1H-1,2,3-triazol-5-yl)-10-methanesulfonyl-13-methoxy-3,8,12-triazatricyclo[7.4.0.0^2,^7]trideca-1(13),2(7),3,5,9,11-hexaene]	< 10
[2H]C([2H])([2H])c1nnn(C)c1-c1cnc2c3ccc(N4CCN(C)CC4)nc3n([C@H](c3ccccc3F)C3CCOCC3)c2c1 [Example 234, 8-[(S)-(2-Fluorophenyl)(oxan-4-yl)methyl]-5-[4-(^2H3)methyl-1-methyl-1H-1,2,3-triazol-5-yl]-11-(4-methylpiperazin-1-yl)-3,8,10-triazatricyclo[7.4.0.0^2,^7]trideca-1(13),2(7),3,5,9,11-hexaene]	< 10
[2H]C([2H])([2H])c1nnn(C)c1-c1cnc2c3c(C(C)=O)cncc3n([C@H](c3ccccc3)C3CCOCC3)c2c1 [Example 297, 1-{5-[4-(^2H3)Methyl-1-methyl-1H-1,2,3-triazol-5-yl]-8-[(S)-oxan-4-yl(phenyl)methyl]-3,8,11-triazatricyclo[7.4.0.0^2,^7]trideca-1(9),2(7),3,5,10,12-hexaen-13-yl}ethan-1-one]	< 10
[2H]C([2H])([2H])c1nnn(C)c1-c1cnc2c3cnc(C(C)(C)O)cc3n([C@H](c3ccccc3F)C3CCOCC3)c2c1 [Example 332]	< 10
